Consider 3 molecules from US20240424147A1, “PHTHALOCYANINE-LOADED MICELLES FOR THE DIRECT VISUALIZATION OF TUMORS” (THE TRUSTEES OF THE UNIVERSITY OF PENNSYLVANIA, priority 2022, published 2024).

Data set [1] is described as follows: Photothermal heating of micelles in water under 808 nm laser. The data set is classed as physicochemical. Conditions: 808 nm laser 0.75 W/cm2, 10 min. The source says: FIGS. 1A-1H show the preparation, characterization and uses of the PC dye micelles according to the invention. […] Infrared thermal images of water and NiPC micelle solution under laser irradiation.
(§1) A total of twenty-eight phthalocyanine and nine naphthalocyanine dyes were loaded into polymeric micelles, composed of the amphiphilic diblock copolymer PEGPCL, via oil-in-water emulsions (FIGS. 16A, 16B, 16C). The nanoparticles were characterized by UV-absorption spectroscopy and dynamic light scattering. The photothermal heating potential and photothermal stability of nanoparticles were assessed by irradiating samples using an 808 nm laser for 10 minutes at 0.75 W. Photoacoustic imaging signal was assessed by loading micelles into a phantom submerged in water. The top 5 naphthalocyanines and top 4 phthalocyanines, based on PA and heating properties, were used for in vitro and in vivo studies. The cytotoxicity and photocytotoxicity of the various micelles were assessed with ovarian cancer ID8-luciferase cells and breast cancer 4T1 cells using an MTS cell proliferation assay.
Pc and Nc-loaded micelles (9.4 uM dye concentration) and controls (empty micelles and water) were prepared and then irradiated at 808 nm (0.75 W/cm2) continuously for 10 min; heating of each sample was measured as a function of time. (FIG. 21)

The conditions of data set [2]: free dye; cited from earlier work.
The nature of data set [3]: Photothermal stability, repeated heating and cooling cycles. It is filed as physicochemical. Conditions: three 10-min heating/cooling cycles, 808 nm, 9.4 uM. The procedure:
as §1
Various Pc and Nc-loaded micelles (9.4 uM) were heated multiple times, using a laser (0.75 W/cm2), in 10-min increments. (FIG. 22) The samples were allowed to cool to room temperature between successive rounds.

The test system of data set [4] is 4T1 triple-negative breast flank tumors. Description: Direct visualization of 4T1 flank tumors after injection of micelles (SBR by ImageJ). It is filed as in vivo, BALB/c mice. The conditions noted are these: 10 mg/kg intravenous (retro-orbital), 24 h where stated. The procedure: Photographs were quantified using ImageJ. Normalized signal-to-background (SBR) measurements were made using the tumor (i.e., the intensity of the blue color) and its surrounding tissue as background after 24 h of PCs loaded micelles (10 mg/kg) and MB (10 mg/kg) intravenous (retro-orbital) injection (n=3).
To identify the PC-loaded micelle formulation that is best able to differentiate tumors from surrounding healthy tissues via direct visualization, BALB/c mice bearing syngeneic 4T1 triple-negative breast flank tumors were injected intravenously with the various micelle formulations (10 mg/kg based on the dye concentration, 24 h before evaluation). […] Normalized signal-to-background (SBR) measurements were calculated in ImageJ using the intensity of the blue color within the tumor and its surrounding tissue, respectively.
4T1 tumor cells (2×10^6 cells in 100 ul) were implanted in the right flank of BALB/c mice (aged 6 weeks). […]
To assess blue nanoparticle accumulation in the breast and spontaneous colorectal mice model, tumors were evaluated visually, and normalized signal-to-background (SBR) was quantitated for each tumor relative to the surrounding tissue by measuring the intensity of blue-green colors via ImageJ. […] Tissues were placed in microscope glass slides, imaged fluorescence in the Cy5 filter (excitation 628-40 nm, emission 692-40 nm), and analyzed via ImageJ. […]

Data set [5] in a line: PCs nanoparticles retention study: dialysis against 20 mM sodium cholate. The conditions noted are these: 24 h, in words. It is filed as physicochemical. The procedure: 100 μL of PCs nanoparticles was diluted in 3 mL of 20 mM sodium cholate solution. Dialysis was performed with dialysis tubing (12,000-14,000 MWCO, Fisher) into 500 mL of 20 mM sodium cholate buffer at room temperature. The buffer was changed after 4 hours. The absorbance of the solutions was recorded before and after (24 hours) dialysis to determine dye retention percentage. […] Methylene blue (MB) is the only water-soluble blue dye that is used in this study.
PCs nanoparticles were synthesized using amphiphilic diblock copolymer (PEG-PCL) (FIG. 1A, phthalocyanine dyes used in this study are shown in FIGS. 4A-4F, see methods in Example 1). Due to the hydrophobic nature of PCs, they tend to aggregate in the aqueous medium (intermolecular interaction (π-π stacking)). […] The size of nanoparticles was determined with dynamic light scattering (DLS). […] The release of the PCs from PCs loaded micelles was assessed in sodium cholate buffer by monitoring leakage of PCs dyes as a function of time. […]
100 μL of PCs nanoparticles was diluted in 3 mL of 20 mM sodium cholate solution. […] The absorbance of the solutions was recorded before and after (24 hours) dialysis to determine dye retention percentage.

For the molecule `CCCCOc1c2c(c(OCCCC)c3ccccc13)-c1nc-2nc2[n-]c(nc3nc(nc4[n-]c(n1)c1c(OCCCC)c5ccccc5c(OCCCC)c41)-c1c-3c(OCCCC)c3ccccc3c1OCCCC)c1c(OCCCC)c3ccccc3c(OCCCC)c21.[Cu+2]` [CuNc Octa, Copper(II) 5,9,14,18,23,27,32,36-octabutoxy-2,3-naphthalocyanine], the “PTT performance compared with other dyes” value in data set [1] was “outperforms all previously tested Pc/Nc dyes for PTT”.

Regarding `CC1(C)C(/C=C/C=C/C=C/C=C2\N(CCCCS(=O)(=O)O)c3ccc4ccccc4c3C2(C)C)=[N+](CCCCS(=O)(=O)[O-])c2ccc3ccccc3c21` [ICG, indocyanine green], in data set [2], the clearance upon injection result is “cleared within minutes upon injection”. Further, in data set [3], the “heating ability after repeated irradiation” value is on record as “lost its ability to heat”.

With `CN(C)c1ccc2nc3ccc(=[N+](C)C)cc-3sc2c1` [MB, Methylene blue], the clearance upon injection result in data set [2] is “cleared within minutes upon injection”. The “tumor contrast / dye accumulation by direct visualization” value in data set [4] is on record as “no accumulation was observed”. Moreover, the “release from the dialysis tubing” value in data set [5] was “released entirely”.
